# Measured values as given in patent US7094752B2 (Chiron Corporation, priority 1997, dated 2006).
# What was measured:
# suPAR = target: T1, suPAR (Homo sapiens, UniProt Q03405); assay: SuPAR:1-anilino-8-napthalenesulfonate (ANS) fluorescence; format: binding; details: 2 μM sUPAR, 10 μM ANS, 0 to 20 μM competitor
# T1 construct: sUPAR, soluble truncated form of the urokinase receptor; made in house; host or cells: baculovirus-infected Sf9 insect cells
# Procedure: Determination of the effect of various peptide ligands on sUPAR/ANS fluorescence was performed following a procedure similar to that of Ploug et al, Biochem. 33: 8991–8997 (1994). Fluorescence emission spectra of sUPAR/ANS solutions with or without competitors were obtained using an Hitachi F-4500 fluorescence spectrophotometer with an excitation wavelength of 386 nm, 5-nm band-pass excitation and emission slits, and a 10 mm path length quartz cuvette. The emission spectra from 400 to 600 nm were recorded. For competition measurements, dilutions of a stock sUPAR/ANS solution were made to give individual 0.5 ml aliquots with a final concentration of 2 μM sUPAR, 10 μM ANS, and 0 to 20 μM competitor in PBS containing 10% DMSO. Fluorescence measurements were made after a one hour incubation at 25° C.
# Mac-1 and uPAR = target: T2, Mac-1 and uPAR (Homo sapiens, UniProt Q03405); assay: Mac-1/uPAR interaction in U937 cell line; format: cell-based; details: 100 μM
# T2 construct: endogenous in cells; host or cells: U937 cell line
# T2 sequence (Q03405 23-305 limits assumed): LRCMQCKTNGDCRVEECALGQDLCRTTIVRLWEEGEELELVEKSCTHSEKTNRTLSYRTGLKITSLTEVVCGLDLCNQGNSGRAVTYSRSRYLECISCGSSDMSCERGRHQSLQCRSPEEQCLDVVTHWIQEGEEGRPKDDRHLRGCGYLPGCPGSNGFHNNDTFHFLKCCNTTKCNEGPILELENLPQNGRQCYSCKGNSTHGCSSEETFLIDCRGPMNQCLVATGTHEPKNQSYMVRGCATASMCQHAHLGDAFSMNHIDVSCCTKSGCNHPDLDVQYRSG
# sUPAR domain 2–3 (D23) = target: T3, sUPAR domain 2–3 (D23) (Homo sapiens, UniProt Q03405); assay: Bacteriophage binding to sUPAR domain 2/3; details: phage-displayed peptide
# T3 construct: domains 2 and 3 (amino acids 93–313); made in house; host or cells: baculovirus infected Sf9 insect cells
# T3 sequence (Q03405 115-335): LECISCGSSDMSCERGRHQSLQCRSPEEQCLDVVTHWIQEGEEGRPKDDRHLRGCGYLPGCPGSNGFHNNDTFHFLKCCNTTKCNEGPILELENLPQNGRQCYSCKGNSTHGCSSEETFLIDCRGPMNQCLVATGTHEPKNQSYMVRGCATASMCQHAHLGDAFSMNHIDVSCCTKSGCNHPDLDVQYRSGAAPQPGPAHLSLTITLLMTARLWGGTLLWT
# Procedure: FIG. 5. Bacteriophage binding to sUPAR domain 2/3. Phage were added to wells containing sUPAR domain 2/3 immobilized by its epitope tag via protein G and monoclonal antibody to the epitope tag. Wells containing protein G and antibody but no domain 2/3 were included to determine nonspecific phage binding. Urea-eluted phage and the input stocks were titered by plaque formation assay. Results were single point determinations calculated as a percent of the input titer and were repeated in three separate experiments.
# It was also shown by the inventors that bacteriophage bound to sUPAR domain 2–3fragment. Protein G, 100μl, 1 mg/ml in 50 mM Na2CO3, pH9.6, was added to MaxiSorp wells, incubated overnight at 4° C. and then washed with PBS/BSA. Fifty μl of monoclonal antibody to the epitope tag EYMPME (SEQ ID NO: 18) was added at 1 mg/ml in PBS/BSA and incubated for 2 hours at room temperature. The wells were washed, recombinant sUPAR domain 2–3 (1.7 μM in PBS/BSA) was added and incubated for 1.5 hours at room temperature. The wells were washed prior to the addition of bacteriophage (approximately 10^8 pfu), and then treated as described in the previous section for binding to suPAR.
# nontransfected 293 cells = assay: Adhesion of nontransfected 293 cells to fibronectin or collagen; format: cell-based
# Text: To explore whether uPAR binds to integrins, nontransfected 293 cells were allowed to adhere to fibronectin or collagen in the presence of recombinant soluble uPAR (suPAR).
# [1] = target: T4, β1/caveolin/uPAR complexes (Homo sapiens, UniProt Q03405); assay: Immunoprecipitation of uPAR with β1 / caveolin; format: cell-based; details: 100 μM, co-immunoprecipitation
# T4 construct: The full length cDNA for the human urokinase receptor; expressed in transfected cells; host or cells: 293 embryonic kidney cells stably expressing GPI-uPAR
# T4 sequence (Q03405 23-305, one chain of several): as the sequence (Q03405 23-305 limits assumed) above
# Procedure: When triton X 100 (0.2%) insoluble fraction of GPI-uPAR 293 cells is solubilized in polar detergents, immunoprecipitation of β1 clearly co-precipitates uPAR as described in Filardo et al, J. Cell. Biol. 1995, in press: Cells (5×10^6) were cultured overnight, washed twice with microtubule stabilization buffer (0.1M PIPES, pH 6.9, 2M glycerol, 1 mM EDTA, and 1 mM magnesium acetate), and then extracted on ice for 5 minutes in buffer containing 0.2% Triton X 100 and inhibitors (1 mM sodium orthovandate, 1 mM phenylsulfonyl fluoride, […] leupeptin). The insoluble residues were solubolized at 4° C. for 20 minutes in 1× RIPA buffer (150 mM sodium chloride, 50 mM Tris-HCl, pH 7.5, 1% deoxycholate, 0.1% sodium dodecyl sulfate, 1% Triton X-100) supplemented with protease inhibitors. The triton soluble fraction was diluted 1:1 with 2× RIPA buffer. Both fractions were centrifuged for 10 minutes at 6000 rpm, and then precleared by incubation with nonimmune serum and protein A-agarose for 2 hours at 4° C.
# Supernatants were transferred to fresh tubes and incubated with antibodies against β1 or caveolin for 2 hours at 4° C. Immune complexes were recovered with protein A-agarose. The washed immunoprecipitates were subjected to 8% SDS-PAGE, and transferred onto a nitrocellulose membrane. […]
# T1 sequence (Q03405 23-305 limits assumed): as above
substance,measurement,setting,value
H-AESTYHHLSLGYMYTLN-NH2 [peptide 25],effect on ANS fluorescence enhancement in the presence of uPAR,suPAR,no effect
same,interaction between Mac-1 and uPAR,Mac-1 and uPAR,abrogated the interaction
same,bacteriophage binding to immobilized D23 versus sUPAR,sUPAR domain 2–3 (D23); listed as bacteriophage 25,equivalent binding to D23 and suPAR
same,bacteriophage binding to immobilized D23 versus sUPAR,sUPAR domain 2–3 (D23); listed as clone 25,bind equivalently to the D23 fragment and full-length receptor
same,reversal of suPAR inhibition of adhesion to fibronectin and collagen,nontransfected 293 cells; 100 μM peptide,reversible
same,adhesion to fibronectin by nontransfected 293 cells,nontransfected 293 cells; peptide alone,no effect
same,disruption of β1/caveolin/uPAR complexes,[1],largely disrupted
